Values joined by “and” are separate entries in the source; they are usually repeats but may differ in a detail not shown here. Identical values can stand only once.
Columns and labels:
[1] = tested on: CLP-induced sepsis; experiment: Cecal ligation puncture (CLP) mouse model for sepsis: survival, weight and MSS clinical score; type: in vivo
From the text: The cecal ligation puncture (CLP) model has been proposed to more closely replicate the nature and course of clinical sepsis in humans, as compared to other models, and is considered by many researchers as the gold-standard animal model of sepsis. The CLP model involves the ligation of the cecum, usually below the ileocecal junction (to prevent bowel obstruction), and at least one centimeter above the distal end of the cecum, otherwise the sepsis induced is very mild. The length of ligated cecum, defined as the distance from the distal end of the cecum to the ligation point, determines the severity of the sepsis induced. Following ligation, the cecum is perforated, and this step too can be adjusted to modulate the severity of the sepsis ensuing. The perforation of the cecum is followed by the release of fecal material into the peritoneal cavity to induce a polymicrobial infection, which results in an exacerbated immune response. The benefits of the CLP model are its reproducibility and potential to alter the severity of sepsis by controlling needle size, number of cecal punctures, and antibiotics utilization.
The study reported here summarizes the effect of apoptotic cells administered 4 hours after the end of CLP on the development of CLP-induced sepsis in a female C57BL/6 mouse model.
C57BL/6 female mice, 10-13 wk old, were purchased from ENVIGO (Israel). Mice were kept in an SPF animal facility in compliance with institutional IACUC guidelines. Mice were weighed daily and monitored 2-3 times a day for clinical signs and determination of the murine sepsis score (MSS) clinical score (according to Shrum, B., Anantha, R. V., Xu, S. X., Donnelly, M., Haeryfar, S. M. M., McCormick, J. K., and Mele, T. (2014). A robust scoring system to evaluate sepsis severity in an animal model. BMC Res. Notes 7, 1-11). The endpoint was defined as total score of 15 or maximum score in one of the categories in the table.
The procedure was performed as briefly described below: Cecal Ligation and Puncture (CLP)—Experimental method. Briefly, the mice were operated under isoflurane anesthesia machine. Mice were anesthetized by 4% isoflurane in the chamber for about 1 minute, following anesthesia mice were transferred to the operation table and connected to the isoflurane nuzzle with 2% isoflurane. Mice were administered analgesics by sub-cutaneous (S.C.) injection of tramadol 5 mg/kg in 0.1 ml of pre-warmed 0.9% saline solution. After opening the abdomen of the mouse by a midline incision, the cecum was exposed. The cecum was ligated 75% above its distal end with a 4-0 silk suture. Following ligation, the cecum was perforated twice with a 19-gauge needle, using the through-and-through technique (introducing a needle through the cecum). […]

[2] = tested on: serum cytokines/chemokines; experiment: CLP model: serum cytokines/chemokines (Luminex); type: in vivo, mouse; conditions: 24 h and 48 h post-CLP
Protocol: At the indicated times (pre-CLP, 24 h, 48 h, and 72 h post-CLP) ˜500 μl blood was collected in a pre-labeled Eppendorf tube and left for 30 min to allow clotting. The samples were centrifuged at 1800 g (3000 rpm) for 10 min at 4° C., […]. Serum was transferred to a new pre-labeled Eppendorf tube and kept at 4° C. Excess serum was stored at −80° C. Cytokine/chemokine measurement was performed using the Luminex MAGPIX system, and analysis was performed with Milliplex software.
Cytokine/chemokine measurement was performed using the Luminex MAGPIX system, and analysis was performed with Milliplex software. NGAL and Cystatin C were tested by Luminex Multiplex kit (Millipore, MKI2MAG-P4k). All reagents were provided with the kit, and all reagents were prepared according to the manufacturers' protocols. The assays were performed in 96-well plates according to the protocol provided. Plate reading was performed with the Luminex MAGPIX system (Luminex Corp.) and analyzed using Milliplex software (Millipore). […] The raw data was measured as mean fluorescence intensity (MFI) and the concentration of each analyte for each sample was calculated using a 4- or 5-parameter logistic fit curve generated for each analyte from the 7 standards. The lower limit of quantification (LLOQ) was determined using the lowest standard that was at least 3 times above background. […]

[3] = tested on: CLP-induced sepsis; experiment: CLP model: organ dysfunction analysis 24 hours post CLP (blood gas, hematology, biochemistry, lung weight, NGAL, cystatin C, C3a, C5a); type: in vivo, mouse; conditions: CLP + Ertapenem mice
Protocol: 22-24 h after CLP, mice were weighed, assigned an MSS clinical score and sacrificed for the evaluation of organ dysfunction. Mice were bled through the retro-orbital sinus (venous blood). Naïve mice were bled under isoflurane analgesia; CLP mice were bled without analgesia due to the concern of death. 100 μl blood was collected using heparin-coated capillary tube (Paul Marienfeld, K G, Lauda-Knigshofen, Germany) and immediately tested using STAT profile prime machine (Nova Biomedical, Waltham, Mass., USA). […] was collected into EDTA tubes (MiniCollect, Greiner Bio-One, […], Austria), tubes were rotated to prevent blood clotting and kept at 4° C. Hematology analysis was performed by AML laboratories (Herzliya, Israel). About 500 μl blood was collected to a pre-labeled Eppendorf tube and left for -30 min to allow clotting. The samples were centrifuged at 1800 g (3000 rpm) for 10 min at 4° C., 200 μl serum was transferred to a new pre-labeled Eppendorf tube and kept at 4° C. Excess serum was stored in -80° C. Biochemistry analysis was performed by AML laboratories (Herzliya, Israel). […] Blood was collected to pre-labeled Eppendorf tubes and left for -30 min to allow clotting. Tubes were centrifuged at 1800 g (3000 rpm) for 10 min at 4° C. Serum was transferred to new pre-labeled Eppendorf tubes and stored at -80° C. for Luminex (NGAL and Cystatin C) and ELISA (C3a and C5a) evaluation. Cytokine/chemokine measurement was performed using the Luminex MAGPIX system, and analysis was performed with Milliplex software. NGAL and Cystatin C were tested by Luminex Multiplex kit (Millipore, […]). All reagents were provided with the kit, and all reagents were prepared according to the manufacturers' protocols. The assays were performed in 96-well plates according to the protocol provided. Plate reading was performed with the Luminex MAGPIX system (Luminex Corp.) and analyzed using Milliplex software (Millipore). […] The raw data was measured as mean fluorescence intensity (MFI) and the concentration of each analyte for each sample was calculated using a 4- or 5-parameter logistic fit curve generated for each analyte from the 7 standards. […] The calculation of the LLOQ was performed by subtracting the MFI of the background (diluent) from the MFI of the lowest standard concentration and back-calculating the concentration from the standard curve. Complement components were tested by sandwich ELISA kits: […]038) and C5a (EA100633, OriGene, Rockville, Md., USA). All reagents were provided with the kits and prepared according to the manufacturers' protocols. Assays were performed in 96-well plate according to the protocols provided. OD plate reading was performed with the Infinite F50 (TECAN, Mainnedorf, Switzerland) and analyzed using Magellan software (TECAN). The raw data was measured as 450 nm optical density (OD) and the concentration was calculated using a linear standard curve generated from 6-7 standards. The lower limit of quantification (LLOQ) was determined using the lowest standard. The calculation of the LLOQ was performed by subtracting the OD of the background (diluent) from the OD of the lowest standard concentration and back-calculating the concentration from the standard curve. […] N=40) was assigned with a clinical score, weighed, and blood samples were drawn from the retro-orbital sinus for further analyses. Mice were sacrificed and their lungs were harvested and weighed. To elucidate the effects of CLP on organ dysfunction and its correlation with the MSS clinical score, blood was tested for multiple parameters of organ dysfunction relating to five major systems: cardiovascular, respiratory, renal, hepatic, and hematological, as well as complement and several metabolites (Tables 24A and 24B).

[4] = tested on: Raji cells; experiment: Flow cytometry of CD20+ Raji tumor cells in spleen, bone marrow and liver of leukemic mice; type: in vivo, mouse; conditions: for CD20+, Bone marrow / CD20+, Liver / CD20+, Spleen: In Vivo Experiment 023, individual mice
Protocol: Mouse spleen, liver, and bone marrow were collected from sacrificed mice (following deterioration of clinical signs, as defined above) and analyzed by flow-cytometry (FACSCalibur, BD, Franklin Lakes, N.J., USA) for the presence of the Raji tumor (anti-CD20).
Upon sacrifice, following the deterioration of clinical signs as described above, organs of interest were collected for analysis, namely the liver, spleen, and bone-marrow. Cells of these target organs were analyzed by flow cytometry for the presence of human tumor cells (Raji cells are positive for CD20).
Liver, spleen, and bone marrow cells were collected and analyzed by flow cytometry (FACSCalibur, BD) for the presence of human CD20-FITC (Biolegend, Cat. #302206); mIgG1-FITC (Biolegend, Cat. #400110).
Mouse spleen, liver, and bone marrow cells were collected from mice who were sacrificed following clinical deterioration, as defined in the methods) and analyzed by flow cytometry (FACSCalibur, BD) for the presence of human CD20 (FITC).
Expression (%) of CD20 tumor cells in the spleen, bone marrow, and liver, as determine by flow cytometry. Mouse spleen, liver, and bone marrow were collected from sacrificed mice (following clinical deterioration, as defined in methods) and analyzed by flow cytometry (FACSCalibur, BD) for the presence of human CD20 (FITC).

[5] = CLP mice given ertapenem, Allocetra-OTS 20×10^6 cells IV 4 h after CLP

Molecule: C[C@@H](O)[C@H]1C(=O)N2C(C(=O)O)=C(S[C@@H]3CN[C@H](C(=O)Nc4cccc(C(=O)O)c4)C3)[C@H](C)[C@H]12 [Ertapenem]
- final clinical score (MSS plateau value) ([1]; CLP mice given ertapenem): 14.37
- median survival [1, 5]: 48 h
- mortality [1, 5]: 93%
- survival rate ([1]; Ertapenem with vehicle control, n=15): 6.6%
- cytokine/chemokine release after sepsis induction [2]: no beneficial effects
- Basophils, median [3]: 0 10^3/μl
- C3a, median [3]: 4835 ng/mL
- C5a, median [3]: 1809 ng/mL
- Chloride, median [3]: 121.1 mmol/L
- Cholesterol, median [3]: 108 mg/dL
- Eosinophils, median [3]: 0 10^3/μl
- Glucose, median [3]: 59.5 mg/dL
- HCT, median [3]: 40.9%
- Hemoglobin, median [3]: 12.4 g/dL
- Lactate, median [3]: 13 mg/dL
- Lymphocytes, median [3]: 1.55 10^3/μl
- MCH, median [3]: 14.9 pg
- MCHC, median [3]: 31.2 g/dL
- MCV, median [3]: 47.9 fL
- Monocytes, median [3]: 0 10^3/μl
- Neutrophils, median [3]: 0.31 10^3/μl
- Phosphorus, median [3]: 10.2 mg/dL
- Platelets, median [3]: 99 10^3/μL
- Potassium, median [3]: 6.6 mmol/L
- RBC, median [3]: 8.36 10^6/μL
- Sodium, median [3]: 154.1 mmol/L
- WBC, median [3]: 1.94 10^3/μL

Molecule: Rituximab [RtX]
- CD20+, Bone marrow ([4]; RtX 2 mg/kg): 0.8% and 3.1% and 3%
- CD20+, Liver ([4]; RtX 2 mg/kg): 2.1% and 1.2% and 0.4%
- CD20+, Spleen ([4]; RtX 2 mg/kg): 0% (2×) and 0.7%
- CD20+, Bone marrow ([4]; RtX 5 mg/kg): 2.1% and 0.5% and 4.3% and 2.2% and 2.6%
- CD20+, Liver ([4]; RtX 5 mg/kg): 1% and 7.3% and 1.4% and 0.9% and 5.7%
- CD20+, Spleen ([4]; RtX 5 mg/kg): 0% (3×) and 0.1% (2×)
- CD20+ average tumor cell population, Bone Marrow ([4]; rtx 2 mg/Kg): 2.3 ± 1.3%
- CD20+ average tumor cell population, Liver ([4]; rtx 2 mg/Kg): 1.2 ± 0.8%
- CD20+ average tumor cell population, Spleen ([4]; rtx 2 mg/Kg): 0.2 ± 0.4%
- CD20+ average tumor cell population, Bone Marrow ([4]; rtx 5 mg/Kg): 1.7 ± 1.5%
- CD20+ average tumor cell population, Liver ([4]; rtx 5 mg/Kg): 3 ± 2.5%
- CD20+ average tumor cell population, Spleen ([4]; rtx 5 mg/Kg): 0%
